Drawing on ChEMBL document CHEMBL3879884, “Compounds and therapeutical use thereof” (2005), this text covers inhibition, Activity and GI50 for 4 molecules.

The target in assay [1] is T1, DNA topoisomerase II (Homo sapiens) (UniProt P11388+Q02880). The experiment in a line: Inhibition of DNA topoisomerase-2 (unknown origin) assessed as decrease in relaxation of supercoiled pRYG DNA at 1 to 10 uM after 50 mins by agarose gel electrophoresis. In kind it is protein assay.
Assay [2] deals with Escherichia coli. Put plainly: Binding affinity to Escherichia coli supercoiled pRYG DNA assessed as reduction of DNA topoisomerase-1-mediated relaxation of supercoiled DNA at 1 to 10 uM by agarose gel electrophoresis.
For assay [3], the target named is T1, DNA topoisomerase II (Homo sapiens). The experiment in a line: Inhibition of DNA topoisomerase-2 (unknown origin) assessed as decrease in relaxation of supercoiled pRYG DNA at 12.5 to 100 uM after 50 mins by ethidium bromide staining-based agarose gel electrophoresis. The class given is protein assay.
For assay [4] the target is unchanged. Put plainly: Binding affinity to p170 form of human DNA topoisomerase-2 at 50 nM in presence of UV irradiation after 60 mins by agarose gel electrophoresis. In kind it is protein assay. To be noted: tested as the 3H-labelled form.
Assay [5] in a line: Cytotoxicity against human DLD cells assessed as inhibition of cell proliferation after 48 hrs by CellTiter-Glo assay. The class given is functional. A general note: In ATP-based viability assays light output follows the ATP content of the culture.

Activity calls are given as the source filed them. The calls are words filed in the database; no cut-off is given here.

As for `CC[n+]1c(-c2ccccc2)c2cc(N)ccc2c2ccc(N)cc21`, the inhibition result in assay [1] is “Active”. In assay [2], the result was Active.

In the case of `COc1ccc(N(C)c2nc(Cl)nc3ccccc23)cc1`, in assay [3], the inhibition entry was “Active”.

For `Cc1nc(N(C)c2ccc(N=[N+]=[N-])cc2)c2ccccc2n1`, the outcome in assay [4] was Active.

Consider `COc1ccc(Nc2nc(Cl)nc3ccccc23)cc1`, for which the GI50 (usually the concentration at which growth is held to half of that of the control) in assay [5] is greater than 10 µM.
